Source: patent US20180161449A1 (OCULIS EHF, priority 2015, published 2018)

Tests used:
[1] = assay type: physicochemical
Method: An excess amount of drug was added to aqueous solutions containing up to 20% (w/v) cyclodextrin. The solutions were sonicated at 40-50° C. for 45-60 minutes in sealed glass vials, and then allowed to cool to room temperature (22-23° C.). Small amount of solid drug was then added to each vial, the vial resealed and allowed to equilibrate under constant agitation and protected from light for 7 days at room temperature. When the solutions had reached equilibrium, they were filtered through a 0.45 μm membrane filter and analyzed by high pressure liquid chromatography. […] The complexation efficiency (CE) was determined from the slope of phase-solubility diagrams (plots of total solubility of the drug versus total CD concentration in mol/l) where S0 is the intrinsic solubility of the drug:
The mobile phase consisted of acetonitrile, methanol and water (60:20:20), the flow rate was 1 ml/min, the column oven temperature was 80° C. and the detection wavelength was 205 nm.

[2] = pure water at room temperature; cited from earlier work

OC[C@H]1O[C@@H]2O[C@H]3[C@H](O)[C@@H](O)[C@@H](O[C@H]4[C@H](O)[C@@H](O)[C@@H](O[C@H]5[C@H](O)[C@@H](O)[C@@H](O[C@H]6[C@H](O)[C@@H](O)[C@@H](O[C@H]7[C@H](O)[C@@H](O)[C@@H](O[C@H]1[C@H](O)[C@H]2O)O[C@@H]7CO)O[C@@H]6CO)O[C@@H]5CO)O[C@@H]4CO)O[C@@H]3CO [α-Cyclodextrin]
CE (complexation efficiency) [1]: 0.54
Solubility in the presence of 15% (w/v) cyclodextrin [1]: 4200 µg/mL

Randomly methylated β-cyclodextrin
CE (complexation efficiency) [1]: 0.053
Solubility in the presence of 5% (w/v) cyclodextrin [1]: 130 µg/mL

OC[C@H]1O[C@@H]2O[C@H]3[C@H](O)[C@@H](O)[C@@H](O[C@H]4[C@H](O)[C@@H](O)[C@@H](O[C@H]5[C@H](O)[C@@H](O)[C@@H](O[C@H]6[C@H](O)[C@@H](O)[C@@H](O[C@H]7[C@H](O)[C@@H](O)[C@@H](O[C@H]8[C@H](O)[C@@H](O)[C@@H](O[C@H]1[C@H](O)[C@H]2O)O[C@@H]8CO)O[C@@H]7CO)O[C@@H]6CO)O[C@@H]5CO)O[C@@H]4CO)O[C@@H]3CO [β-Cyclodextrin]
Solubility of the cyclodextrin in pure water [2]: 2 % (w/v)
CE (complexation efficiency) [1]: 0.030

2-Hydroxypropyl-γ-cyclodextrin
CE (complexation efficiency) [1]: 0.0011

OC[C@H]1O[C@@H]2O[C@H]3[C@H](O)[C@@H](O)[C@@H](O[C@H]4[C@H](O)[C@@H](O)[C@@H](O[C@H]5[C@H](O)[C@@H](O)[C@@H](O[C@H]6[C@H](O)[C@@H](O)[C@@H](O[C@H]7[C@H](O)[C@@H](O)[C@@H](O[C@H]8[C@H](O)[C@@H](O)[C@@H](O[C@H]9[C@H](O)[C@@H](O)[C@@H](O[C@H]1[C@H](O)[C@H]2O)O[C@@H]9CO)O[C@@H]8CO)O[C@@H]7CO)O[C@@H]6CO)O[C@@H]5CO)O[C@@H]4CO)O[C@@H]3CO [γ-Cyclodextrin]
CE (complexation efficiency) [1]: 0.0049

2-Hydroxypropyl-α-cyclodextrin
CE (complexation efficiency) [1]: 0.031
Solubility in the presence of 5% (w/v) cyclodextrin [1]: 84 µg/mL
Solubility in the presence of 15% (w/v) cyclodextrin [1]: 460 µg/mL
